# Assay results reported in patent publication US4874856A, “3-(substituted)propenyl-7-(aminothiazolylacetamido) ceph-3-em-4-carboxylic acids and esters thereof” (Bristol-Myers Company, priority 1987, dated 1989).
# Experiments:
# [1] = test system: clinically important pathogens; test: Comparison of in vitro antibacterial activities of Compound 29 and FK-482 (Table 6); format: cell-based; conditions: Thirty-seven organisms
# Source text: Table 6 is a comparison of the in vitro antibacterial activities of Compound 29 and the vinyl homolog thereof FK-482 against clinically important pathogens. Thirty-seven organisms were more than 4-fold more susceptible to Compound 29 than to FK-482. FK-482 has the following formula and is described by Takaya, et al. in U.S. Pat. No. 4,559,334 patented Dec. 17, 1985 (filed Oct. 20, 1983). [drawing 14]
# Mueller-Hinton agar Inoculum size; 10^6 cells/ml
# [2] = test system: Cephalothin(CET)sensitive E. coli (2 strains), K. pneumoniae (1) an P. mirabilis (2); test: In vitro MIC, two-fold serial agar dilution in Mueller-Hinton agar, GnIa strains; format: cell-based; conditions: 5 strains, read-out: Geometric mean of MIC, GnIa
# Method: The in vitro antibacterial activity of the parent cephalosporanic acids of Formula I wherein R^4 is hydrogen is shown in Table 1 in terms of geometric mean of the Minimum Inhibitory Concentrations (MIC's) which were determined by the two-fold serial agar dilution method in Mueller-Hinton agar against 25 strains of test organisms in five groups.
# GnIa: Cephalothin(CET)sensitive E. coli (2 strains), K. pneumoniae (1) an […]
structure (smiles),measurement,setting,value
"C/C=C\C1=C(C(=O)O)N2C(=O)[C@@H](NC(=O)/C(=N\O)c3csc(N)n3)[C@H]2SC1 [Compound 29, 7β-[(Z)-2-(2-aminothiazol-4-yl)-2-(hydroxyimino)acetamido]-3-[(Z)-prop-1-en-1-yl]-3-cephem-4-carboxylic acid]",more susceptible to Compound 29 than to FK-482,[1],more than 4 fold
same,MIC,[2],0.066 µg/mL
